Laboratory results as given in ChEMBL document CHEMBL1140554, “2-Aryl-3,3,3-trifluoro-2-hydroxypropionic acids: a new class of protein tyrosine phosphatase 1B inhibitors” (Bioorg Med Chem Lett, 2007).
Active and inactive are the calls of the source. The rule behind the calls is not given here.

biological target: T1, Tyrosine-protein phosphatase non-receptor type 1 (Homo sapiens) (UniProt P18031); experiment: Inhibition of PTP1B expressed in Sf9 cells at 400 uM
T1 sequence (whole entry): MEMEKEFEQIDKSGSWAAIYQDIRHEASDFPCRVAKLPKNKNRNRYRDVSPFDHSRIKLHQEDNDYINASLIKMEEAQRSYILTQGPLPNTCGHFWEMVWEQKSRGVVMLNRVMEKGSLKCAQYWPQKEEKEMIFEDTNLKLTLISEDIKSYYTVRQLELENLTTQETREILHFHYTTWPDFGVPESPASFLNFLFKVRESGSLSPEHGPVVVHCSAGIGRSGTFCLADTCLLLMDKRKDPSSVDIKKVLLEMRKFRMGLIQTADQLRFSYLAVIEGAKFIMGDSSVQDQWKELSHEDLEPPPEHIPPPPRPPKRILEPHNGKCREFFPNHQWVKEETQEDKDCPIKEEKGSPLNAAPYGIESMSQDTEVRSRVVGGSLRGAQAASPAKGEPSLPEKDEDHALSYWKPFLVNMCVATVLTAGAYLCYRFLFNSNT

Activity	SMILES
inactive	COCn1cc(C(O)(C(=O)O)C(F)(F)F)c2cc(OCc3ccccc3)ccc21 (stereo not given)
inactive	COCn1cc(C(O)(C(=O)O)C(F)(F)F)c2ccccc21 (stereo not given)

biological target: T2, Tyrosine-protein phosphatase non-receptor type 1 (Homo sapiens, UniProt P18031); experiment: Inhibition of PTP1B in a cell-free assay
T2 sequence (P18031 whole entry): T1 sequence (whole entry)

IC50	SMILES
3 µM	Cc1nc(-c2ccc(Cl)cc2)sc1CCOc1cc(C(O)(C(=O)O)C(F)(F)F)ccc1OCc1ccccc1 (stereo not given)

biological target: T2, Tyrosine-protein phosphatase non-receptor type 1; experiment: Inhibition of PTP1B expressed in Sf9 cells

IC50	SMILES
10 µM	Cc1nc(-c2ccc(Cl)cc2)sc1CCOc1cc(C(O)(C(=O)O)C(F)(F)F)ccc1OCCc1ccccc1 (stereo not given)
12 µM	CCCCCOc1ccc(C(O)(C(=O)O)C(F)(F)F)cc1OCCc1sc(-c2ccc(Cl)cc2)nc1C (stereo not given)
105 µM	Cc1nc(-c2ccc(Cl)cc2)sc1CCOc1cc(C(O)(C(=O)O)C(F)(F)F)ccc1O (stereo not given)
27 µM	Cc1nc(-c2ccc(Cl)cc2)sc1CCOc1ccc2c(c1)c(C(O)(C(=O)O)C(F)(F)F)cn2Cc1ccccc1 (stereo not given)
23 µM	Cc1nc(-c2ccc(Cl)cc2)sc1CCOc1cc(C(O)(C(=O)O)C(F)(F)F)ccc1OCc1ccc(F)cc1 (stereo not given)

More lines, now with the values behind:

SMILES	IC50
COC(=O)c1c(O)cccc1OC/C=C/c1ccc(F)c(-c2cc(C(=O)O)no2)c1	110 µM
COc1ccc(COc2ccc(C(O)(C(=O)O)C(F)(F)F)cc2OCCc2sc(-c3ccc(Cl)cc3)nc2C)cc1 (stereo not given)	12 µM
Cc1nc(-c2ccc(Cl)cc2)sc1CCOc1cc(C(O)(C(=O)O)C(F)(F)F)ccc1OCC(=O)O (stereo not given)	500 µM
Cc1nc(-c2ccc(Cl)cc2)sc1CCOc1ccc2c(c1)c(C(O)(C(=O)O)C(F)(F)F)cn2COCC[Si](C)(C)C (stereo not given)	32 µM
COCn1cc(C(O)(C(=O)O)C(F)(F)F)c2cccc(OCc3ccccc3)c21 (stereo not given)	176 µM
COCn1cc(C(O)(C(=O)O)C(F)(F)F)c2cc(OCCc3sc(-c4ccc(Cl)cc4)nc3C)ccc21 (stereo not given)	59 µM
Cc1nc(-c2ccc(Cl)cc2)sc1CCOc1cc(C(O)(C(=O)O)C(F)(F)F)ccc1OCc1ccncc1 (stereo not given)	36 µM
Cc1nc(-c2ccc(Cl)cc2)sc1CCOc1cccc(C(O)(C(=O)O)C(F)(F)F)c1 (stereo not given)	37 µM
Cc1nc(-c2ccc(Cl)cc2)sc1CCOc1cc(C(O)(C(=O)O)C(F)(F)F)ccc1OCc1ccccc1 (stereo not given)	3.2 µM
COC(=O)c1c(O)cccc1OCCOc1ccc2c(c1)c(C(O)(C(=O)O)C(F)(F)F)cn2COCC[Si](C)(C)C (stereo not given)	123 µM
COCn1cc(C(O)(C(=O)O)C(F)(F)F)c2ccc(OCc3ccccc3)cc21 (stereo not given)	382 µM
O=C(c1ccccc1)C(c1ccccc1)c1ccc(C(F)(F)P(=O)(O)O)cc1 (stereo not given)	1.2 µM
